Measurements as given in patent US12404283B2, “c-MYC mRNA translation modulators and uses thereof in the treatment of cancer” (Anima Biotech Inc., priority 2022, dated 2025).

Test system: c-Myc
Assay: c-Myc immunofluorescence assay
Assay type: cell-based, human
Conditions: A549 cells, 24 hours treatment, anti-c-Myc immunofluorescence
Method in brief: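 A549 cells grown 48 h, exposed 24 h to rising compound concentrations, then fixed, permeabilised and stained for c-Myc plus DAPI. Nuclear-segmented c-Myc fluorescence quantified by high-content imaging at 20×; EC50 from logistic dose–response fits.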

SMILES | Myc Efficacy (−LogEC50)
CCN(CC)CCCN(C)C(=O)c1ccc2c(c1)sc1nc(-c3ccc(C(=O)NC)cc3F)cn12 [compound 333, N-(3-(diethylamino)propyl)-2-(2-fluoro-4-(methylcarbamoyl)phenyl)-N-methylbenzo[d]imidazo[2,1-b]thiazole-7-carboxamide] | + (+ >3 and <5)
CCN(CC)CCCNC(=O)c1ccc2c(c1)sc1nc(-c3cc(F)c(CNC4CC4)cc3F)cn12 [compound 334, 2-(4-((cyclopropylamino)methyl)-2,5-difluorophenyl)-N-(3-(diethylamino)propyl)benzo [d]imidazo[2,1-b]thiazole-7-carboxamide] | ++ (++ ≥5 and <6)
CCN(CC)CCCNC(=O)c1ccc2c(c1)sc1nc(-c3ccc(CN)cc3)nn12 [compound 348, 2-(4-(aminomethyl)phenyl)-N-(3-(diethylamino)propyl)benzo [4,5]thiazolo[3,2-b][1,2,4]triazole-6-carboxamide] | ++ (++ ≥5 and <6)
CCNCCCNC(=O)c1ccc2c(c1)sc1nc(-c3ccc(C(=O)NC)cc3F)cn12 [compound 362, N-(3-(ethylamino)propyl)-2-(2-fluoro-4-(methylcarbamoyl)phenyl) benzo[d]limidazo[2,1-b]thiazole-7-carboxamide] | ++ (++ ≥5 and <6)
CNC(=O)c1ccc(-c2cn3c(n2)sc2cc(C(=O)NC4CCNCC4)ccc23)c(F)c1 [compound 363, 2-(2-fluoro-4-(methylcarbamoyl)phenyl)-N-(piperidin-4-yl)benzo[d]imidazo[2,1-b]thiazole-7-carboxamide] | ++ (++ ≥5 and <6)
CNC(=O)c1ccc(-c2cn3c(n2)sc2cc(NC(=O)C4CCNCC4)ccc23)c(F)c1 [compound 364, N-(2-(2-fluoro-4-(methylcarbamoyl)phenyl)benzo[d]imidazo[2,1-b]thiazol-7-yl)piperidine-4-carboxamide] | ++ (++ ≥5 and <6)
CCN(CC)CCCC(=O)Nc1ccc2c(c1)sc1nc(-c3ccc(C(=O)NC)cc3F)cn12 [compound 365, 4-(7-(4-(diethylamino)butanamido)benzo[d]imidazo[2,1-b]thiazol-2-yl)-3-fluoro-N-methylbenzamide] | ++ (++ ≥5 and <6)
O=C(NCCCN1CCCCC1)c1ccc2c(c1)sc1nc(-c3ccc(CNC4CC4)cc3F)cn12 [compound 368, 2-(4-((cyclopropylamino)methyl)-2-fluorophenyl)-N-(3-(piperidin-1-yl)propyl)benzo[d]imidazo [2,1-b]thiazole-7-carboxamide] | +++ (+++ ≥6)
NCc1ccc(-c2cn3c(n2)sc2cc(C(=O)NCCCN4CCCCC4)ccc23)c(Cl)c1 [compound 369, 2-(4-(aminomethyl)-2-chlorophenyl)-N-(3-(piperidin-1-yl)propyl)benzo[d]imidazo [2,1-b]thiazole-7-carboxamide] | +++ (+++ ≥6)
NCc1ccc(-c2cn3c(n2)sc2cc(C(=O)NCCCN4CCCCC4)ccc23)c(C2CC2)c1 [compound 370, 2-(4-(aminomethyl)-2-cyclopropylphenyl)-N-(3-(piperidin-1-yl)propyl)benzo[d]imidazo [2,1-b]thiazole-7-carboxamide] | +++ (+++ ≥6)
NCc1ccc(-c2cn3c(n2)sc2cc(C(=O)NCCCN4CCCCC4)ccc23)c(C(F)F)c1 [compound 371, 2-(4-(aminomethyl)-2-(difluoromethyl)phenyl)-N-(3-(piperidin-1-yl)propyl)benzo[d]imidazo [2,1-b]thiazole-7-carboxamide] | ++ (++ ≥5 and <6)
NCc1ccc(-c2cn3c(n2)sc2cc(C(=O)NCCCN4CCCCC4)ccc23)c(C(F)(F)F)c1 [compound 372, 2-(4-(aminomethyl)-2-(trifluoromethyl)phenyl)-N-(3-(piperidin-1-yl)propyl)benzo[d]imidazo [2,1-b]thiazole-7-carboxamide] | ++ (++ ≥5 and <6)
O=C(NCCCN1CCCCC1)c1ccc2c(c1)sc1nc(-c3ccc(C4CCCN4)cc3)cn12 (stereo not drawn) [compound 373, N-(3-(piperidin-1-yl)propyl)-2-(4-(pyrrolidin-2-yl)phenyl)benzo[d]imidazo [2,1-b]thiazole-7-carboxamide] | +++ (+++ ≥6)
NCc1ccc(-c2cn3c(n2)sc2cc(C(=O)NCCCN4CCCCC4)ccc23)c(F)c1 [compound 374, 2-(4-(aminomethyl)-2-fluorophenyl)-N-(3-(piperidin-1-yl)propyl)benzo[d]imidazo [2,1-b]thiazole-7-carboxamide] | +++ (+++ ≥6)
NCc1ccc(-c2cn3c(n2)sc2cc(C(=O)NCCCN4CCCCC4)ccc23)cc1F [compound 375, 2-(4-(aminomethyl)-3-fluorophenyl)-N-(3-(piperidin-1-yl)propyl)benzo[d]imidazo [2,1-b]thiazole-7-carboxamide] | +++ (+++ ≥6)
NCc1ccc(-c2cn3c(n2)sc2cc(C(=O)NCCCN4CCCCC4)ccc23)cc1Cl [compound 376, 2-(4-(aminomethyl)-3-chlorophenyl)-N-(3-(piperidin-1-yl)propyl)benzo[d]imidazo [2,1-b]thiazole-7-carboxamide] | +++ (+++ ≥6)
NCc1ccc(-c2cn3c(n2)sc2cc(C(=O)NCCCN4CCCCC4)ccc23)cc1C(F)(F)F [compound 378, 2-(4-(aminomethyl)-3-(trifluoromethyl)phenyl)-N-(3-(piperidin-1-yl)propyl)benzo[d]imidazo [2,1-b]thiazole-7-carboxamide] | +++ (+++ ≥6)
NCc1ccc(-c2cn3c(n2)sc2cc(C(=O)NCCCN4CCCCC4)ccc23)cc1C(F)F [compound 379, 2-(4-(aminomethyl)-3-(difluoromethyl)phenyl)-N-(3-(piperidin-1-yl)propyl)benzo[d]imidazo [2,1-b]thiazole-7-carboxamide] | +++ (+++ ≥6)
Cc1cc(-c2cn3c(n2)sc2cc(C(=O)NCCCN4CCCCC4)ccc23)ccc1CN [compound 381, 2-(4-(aminomethyl)-3-methylphenyl)-N-(3-(piperidin-1-yl)propyl)benzo[d]imidazo [2,1-b]thiazole-7-carboxamide] | +++ (+++ ≥6)
NCc1c(F)cc(-c2cn3c(n2)sc2cc(C(=O)NCCCN4CCCCC4)ccc23)cc1F [compound 383, 2-(4-(aminomethyl)-3,5-difluorophenyl)-N-(3-(piperidin-1-yl)propyl)benzo[d]imidazo [2,1-b]thiazole-7-carboxamide] | ++ (++ ≥5 and <6)
NCc1c(F)cc(-c2cn3c(n2)sc2cc(C(=O)NCCCN4CCCCC4)ccc23)cc1Cl [compound 384, 2-(4-(aminomethyl)-3-chloro-5-fluorophenyl)-N-(3-(piperidin-1-yl)propyl)benzo[d]imidazo [2,1-b]thiazole-7-carboxamide] | ++ (++ ≥5 and <6)
CNC(=O)c1ccc(-c2nc3sc4cc(C(=O)NCCCN5CCCCC5)ccc4n3n2)c(F)c1 [compound 386, 2-(2-fluoro-4-(methylcarbamoyl)phenyl)-N-(3-(piperidin-1-yl)propyl)benzo[4,5]thiazolo [3,2-b][1,2,4]triazole-6-carboxamide] | +++ (+++ ≥6)
NCc1ccc(-c2nc3sc4cc(C(=O)NCCCN5CCCCC5)ccc4n3n2)c(F)c1 [compound 387, 2-(4-(aminomethyl)-2-fluorophenyl)-N-(3-(piperidin-1-yl)propyl)benzo[4,5]thiazolo [3,2-b][1,2,4]triazole-6-carboxamide] | +++ (+++ ≥6)
CCN(CC)CCCNC(=O)c1ccc2c(c1)sc1nc(-c3ccc(CN)cc3F)nn12 [compound 388, 2-(4-(aminomethyl)-2-fluorophenyl)-N-(3-(diethylamino)propyl) benzo[4,5]thiazolo[3,2-b][1,2,4]triazole-6-carboxamide] | ++ (++ ≥5 and <6)
CNC(=O)c1ccc(-c2nc3sc4cc(C(=O)NCCCN5CCC(F)CC5)ccc4n3n2)c(F)c1 [compound 389, 2-(2-fluoro-4-(methylcarbamoyl)phenyl)-N-(3-(4-fluoropiperidin-1-yl)propyl)benzo[4,5]thiazolo [3,2-b][1,2,4]triazole-6-carboxamide] | ++ (++ ≥5 and <6)
NCc1ccc(-c2nc3sc4cc(C(=O)NCCCN5CCC(F)CC5)ccc4n3n2)c(F)c1 [compound 390, 2-(4-(aminomethyl)-2-fluorophenyl)-N-(3-(4-fluoropiperidin-1-yl)propyl)benzo[4,5]thiazolo [3,2-b][1,2,4]triazole-6-carboxamide] | ++ (++ ≥5 and <6)
NCc1ccc(-c2nc3sc4cc(C(=O)NCCCN5CCCCC5)ccc4n3n2)cc1 [compound 392, 2-(4-(aminomethyl)phenyl)-N-(3-(piperidin-1-yl)propyl)benzo[4,5]thiazolo [3,2-b][1,2,4]triazole-6-carboxamide] | +++ (+++ ≥6)
O=C(NCCCN1CCCCC1)c1ccc2c(c1)sc1nc(-c3ccc(CNC4CC4)cc3)nn12 [compound 393, 2-(4-((cyclopropylamino)methyl)phenyl)-N-(3-(piperidin-1-yl)propyl)benzo[4,5]thiazolo [3,2-b][1,2,4]triazole-6-carboxamide] | +++ (+++ ≥6)
CCN(CC)CCCNC(=O)c1ccc2c(c1)sc1nc(-c3ccc(CNC4CC4)cc3)nn12 [compound 394, 2-(4-((cyclopropylamino)methyl)phenyl)-N-(3-(diethylamino)propyl)benzo [4,5]thiazolo[3,2-b][1,2,4]triazole-6-carboxamide] | ++ (++ ≥5 and <6)
CCN(CC)CCCNC(=O)c1ccc2c(c1)sc1nc(-c3ccc(CNC4CC4)cc3F)nn12 [compound 395, 2-(4-((cyclopropylamino)methyl)-2-fluorophenyl)-N-(3-(diethylamino)propyl)benzo [4,5]thiazolo[3,2-b][1,2,4]triazole-6-carboxamide] | ++ (++ ≥5 and <6)
